Where “and” joins values, the source holds several entries; their conditions need not be identical. Equal values may be shown once.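 Where inhibition never reached the appropriate level, the endpoint shown equals the highest concentration tested. Otherwise, values were interpolated linearly from a five-concentration, 48-hour dose response in 96-well plates. GI50 = concentration required for 50% inhibition of growth. TGI denotes the concentration required for complete inhibition of growth.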
Key:
Experiment in all cases: NCI-60 cell line screen, 48 h
786-0 renal = system: 786-0 renal
UACC-257 melanoma = system: UACC-257 melanoma
OVCAR-5 ovarian = system: OVCAR-5 ovarian
DU-145 prostate = system: DU-145 prostate
TK-10 renal = system: TK-10 renal
HOP-62 NSCLC = system: HOP-62 NSCLC
MALME-3M melanoma = system: MALME-3M melanoma
HOP-92 NSCLC = system: HOP-92 NSCLC
SW-620 colon = system: SW-620 colon
NCI-H23 lung = system: NCI-H23 lung

SMILES	GI50 (786-0 renal)	TGI (786-0 renal)	GI50 (UACC-257 melanoma)	TGI (UACC-257 melanoma)	GI50 (OVCAR-5 ovarian)	TGI (OVCAR-5 ovarian)	GI50 (DU-145 prostate)	TGI (DU-145 prostate)	GI50 (TK-10 renal)	TGI (TK-10 renal)	GI50 (HOP-62 NSCLC)	TGI (HOP-62 NSCLC)	GI50 (MALME-3M melanoma)	TGI (MALME-3M melanoma)	GI50 (HOP-92 NSCLC)	TGI (HOP-92 NSCLC) [µM]	GI50 (SW-620 colon)	TGI (SW-620 colon)	GI50 (NCI-H23 lung)	TGI (NCI-H23 lung)
COc1ccc(S(=O)(=O)NC2=NCCN2C(=S)SN2CCn3c2nsc3=S)cc1OC	25500 nM	63.9 µM	25.1 µM	82.9 µM	20.8 µM	40.4 µM	41000 nM	> 100 µM	22.2 µM	73.8 µM	27500 nM	78.3 µM	16700 nM	43.7 µM	23200 nM	48.6	18900 nM	> 100 µM	22400 nM	53 µM
O=C(Nc1ccc(Cl)cc1F)c1cc(F)ccc1O	2730 nM	9.73 µM	0.853 µM	7.2 µM	3.26 µM	23 µM	1240 nM	> 46.3 µM	4.69 µM	23.1 µM	1500 nM	19.8 µM	410 nM	2.27 µM	196 nM	0.874	1460 nM	23.6 µM	553 nM	3.29 µM
CN(C)CCNC(=O)c1cccc2cc([N+](=O)[O-])ccc12	1620 nM and 254 nM	8.14 µM and 3.53 µM	–	0.897 µM	–	5.47 µM and 0.87 µM	–	17.1 µM	0.816 µM and 0.155 µM	4.74 µM and 0.591 µM	1190 nM and 224 nM	4.13 µM and 1.23 µM	1330 nM and 179 nM	2.75 µM and 0.621 µM	–	1.34	519 nM and 180 nM	17.7 µM and 5.64 µM	1690 nM and 211 nM	6.68 µM and 0.758 µM
CN1C(=O)N(C)C2C1NN=c1s/c(=C\c3c[nH]c4ccccc34)c(=O)n12 (configuration not stated)	125 nM	> 100 µM	> 100 µM	> 100 µM	0.0731 µM	> 100 µM	42.8 nM	> 28.9 µM	34.7 µM	> 100 µM	46 nM	52.6 µM	68.9 nM	> 100 µM	360 nM	> 100	44.2 nM	> 100 µM	47.9 nM	> 100 µM
CCc1nc(-n2c(CC)nc3ccccc3c2=O)nc(N)c1-c1ccc(Cl)cc1	8130 nM	> 100 µM	13 µM	> 94.3 µM	30.9 µM	> 100 µM	> 76500 nM	> 100 µM	35.6 µM	> 100 µM	44800 nM	> 100 µM	> 80100 nM	> 100 µM	18000 nM	99.9	5420 nM	> 100 µM	10900 nM	> 100 µM
OC(COc1cccc2ccccc12)CN1CCN(c2ccc(Cl)cc2)CC1 (configuration not stated)	16300 nM	33.1 µM	42.3 µM	> 100 µM	> 100 µM	> 100 µM	38900 nM	> 100 µM	10.1 µM	26.5 µM	8530 nM	29.6 µM	22500 nM	64.7 µM	5020 nM	28	17900 nM	> 100 µM	29400 nM	> 100 µM
CCC(C(=O)c1cccs1)C(O)(C(F)(F)F)C(F)(F)F (configuration not stated)	–	> 100 µM	–	> 100 µM	–	> 100 µM	–	> 100 µM	–	> 100 µM	–	> 100 µM	–	> 100 µM	–	> 100	–	> 100 µM	–	> 100 µM
CCCCCCCCCCCCOC1C(CNCC2OC3OC(C)(C)OC3C2NC(=O)Nc2ccc(C(F)(F)F)cc2)OC2OC(C)(C)OC21 (configuration not stated)	7620 nM	14.4 µM	8.62 µM	17.9 µM	9.11 µM	17 µM	5030 nM	11.9 µM	3.39 µM	7.86 µM	8100 nM	15.1 µM	3390 nM	13.7 µM	7400 nM	14.4	4090 nM	10.2 µM	8780 nM	19 µM
Cc1cc(Nc2cc(CN3CCOCC3)c3nc(C)c(Cc4ccc(Cl)cc4F)n3n2)n[nH]1	1670 nM	6.18 µM	3.35 µM	16.2 µM	1.8 µM	7.03 µM	1240 nM	11.5 µM	2.14 µM	6.61 µM	1840 nM	9.49 µM	4350 nM	20.6 µM	1650 nM	5.01	1070 nM	14.3 µM	1720 nM	8.35 µM
COc1cc2cn3c4ccc(O)cc4nc(N)c3c2cc1OC	675 nM	3.05 µM	1.39 µM	6.94 µM	2.6 µM	14.1 µM	253 nM	5.75 µM	1.54 µM	9.55 µM	375 nM	7.67 µM	792 nM	16.8 µM	669 nM	8.06	119 nM	16 µM	968 nM	4.88 µM
COc1ccc2[nH]c3c(C)c4cc[n+](C)cc4c(C)c3c2c1	267 nM and 161 nM and 898 nM	5.49 µM	6.27 µM and 5.41 µM	54.5 µM [middle of 4 runs]	2.32 µM and 3.07 µM	–	2100 nM and 440 nM and 691 nM	37.7 µM and 5.13 µM	12.4 µM and 24.3 µM and 5.65 µM	89.2 µM and > 163 µM	311 nM and 240 nM	2.24 µM [middle of 4 runs]	624 nM and 2380 nM	–	239 nM and 1550 nM	–	280 nM	–	325 nM	3.3 µM [middle of 4 runs]
CSC1=Nc2c(c(C)c(-c3ccccc3)n2CCCCl)C2=NC(=O)CN12	8570 nM	61.7 µM	12.5 µM	28.4 µM	11.6 µM	37.8 µM	11500 nM	26.7 µM	8.45 µM	78.3 µM	11000 nM	63.1 µM	8380 nM	23.5 µM	11500 nM	37	4790 nM	53.5 µM	8260 nM	46.3 µM
